# Reference: article PMC5421785, “Citrullination only infrequently impacts peptide binding to HLA class II MHC” (PLoS ONE, 2017)
# Like-named read-outs stand apart in the source and are kept apart here. Square brackets hold non-standard residues; d marks the D form. Peptide text beside a SMILES is read from it. Cit = NC(=O)NCCC[C@H](N)C(=O)O
# Experiments:
# HLA-DRB1*04:01 = target: T1, HLA-DRB1*04:01 (Homo sapiens, UniProt P01903+P01911, A100K/A169T/F76Y/I96L/K127E/L162R/M171V/N62H/P40V/Q125Y/R42H/S133A/S149N/S66Y/V115G/V209L/W38E); assay: HLA class II peptide binding, inhibition of radiolabeled peptide binding to purified MHC
# T1 construct: EBV transformed homozygous cell lines were used as sources of MHC molecules; endogenous in cells; host or cells: EBV transformed homozygous cell lines
# HLA-DRB1*01:01 = target: T2, HLA-DRB1*01:01 (Homo sapiens, UniProt P01903+P01911, A100R/D57E/F55L/F60I/F76Y/I96L/L162R/M171V/P40L/Q125E/R42F/V115G/Y59C); assay: as above
# T2 construct: EBV transformed homozygous cell lines were used as sources of MHC molecules; endogenous in cells; host or cells: EBV transformed homozygous cell lines
# [1] = citrullinated peptide as listed (X at Cit position), read-out: DRB1*04:01 binding capacity Cit peptide (IC50 nM)
# [2] = citrullinated peptide as listed (X at Cit position), read-out: DRB1*01:01 binding capacity Cit peptide (IC50 nM)
# [3] = citrullinated 15-mer (X), purified MHC, inhibition of radiolabeled peptide binding, dash = IC50 >40,000 nM, read-out: DRB1*04:01 binding capacity, Cit peptide (IC50 nM)
# [4] = citrullinated 15-mer (X), purified MHC, inhibition of radiolabeled peptide binding, dash = IC50 >40,000 nM, read-out: DRB1*01:01 binding capacity, Cit peptide (IC50 nM)
# [5] = citrullinated 15-mer peptide (X = citrulline), purified HLA-DRB1*04:01, read-out: DRB1*04:01 binding capacity, Cit peptide (IC50 nM)
# [6] = citrullinated 15-mer peptide (X = citrulline), purified HLA-DRB1*01:01, read-out: DRB1*01:01 binding capacity, Cit peptide (IC50 nM)
IC50 (HLA-DRB1*04:01; [3]),IC50 (HLA-DRB1*01:01; [4]),IC50 (HLA-DRB1*04:01; [5]),IC50 (HLA-DRB1*01:01; [6]),Structure (SMILES),further results
–,–,–,–,CC[C@H](C)[C@H](NC(=O)[C@H](CCC(N)=O)NC(=O)[C@H](CC(N)=O)NC(=O)[C@H](CC(N)=O)NC(=O)[C@H](CC(C)C)NC(=O)[C@@H](N)CO)C(=O)N[C@@H](CCC(=O)O)C(=O)N[C@@H](CO)C(=O)N[C@H](C(=O)N[C@@H](CCCNC(N)=O)C(=O)N[C@@H](CO)C(=O)N1CCC[C@H]1C(=O)N[C@@H](CCC(=O)O)C(=O)NCC(=O)N[C@@H](CO)C(=O)O)[C@@H](C)CC [SLNNQIESIXSPEGS] (H-SLNNQIESI[Cit]SPEGS-OH),IC50 (HLA-DRB1*04:01; [1]): 18 nM; IC50 (HLA-DRB1*01:01; [2]): 6.5 nM
1280 nM,16 nM,–,–,CC(C)C[C@H](NC(=O)[C@@H](N)CO)C(=O)N[C@@H](Cc1ccc(O)cc1)C(=O)N[C@@H](C)C(=O)N[C@@H](CO)C(=O)N[C@@H](CO)C(=O)N1CCC[C@H]1C(=O)NCC(=O)NCC(=O)N[C@H](C(=O)N[C@@H](Cc1ccc(O)cc1)C(=O)N[C@@H](C)C(=O)N[C@H](C(=O)N[C@@H](CCCNC(N)=O)C(=O)N[C@@H](CO)C(=O)O)[C@@H](C)O)C(C)C [SLYASSPGGVYATXS],–
–,–,–,–,CC[C@H](C)[C@H](NC(=O)[C@H](CCC(=O)O)NC(=O)[C@@H](NC(=O)[C@H](CC(=O)O)NC(=O)[C@H](CC(N)=O)NC(=O)[C@@H](N)CO)C(C)C)C(=O)N[C@@H](CCCNC(=N)N)C(=O)N[C@@H](C)C(=O)N[C@@H](CCC(=O)O)C(=O)NCC(=O)N[C@@H](CC(N)=O)C(=O)N[C@@H](CO)C(=O)N[C@@H](CCCNC(N)=O)C(=O)N[C@@H](Cc1ccccc1)C(=O)N[C@H](C(=O)O)[C@@H](C)O [SNDVEIRAEGNSXFT] (H-SNDVEIRAEGNS[Cit]FT-OH),IC50 (HLA-DRB1*04:01; [1]): 178 nM; IC50 (HLA-DRB1*01:01; [2]): 92 nM
–,–,–,–,CC[C@H](C)[C@H](NC(=O)[C@H](CCC(=O)O)NC(=O)[C@@H](NC(=O)[C@H](CC(=O)O)NC(=O)[C@H](CC(N)=O)NC(=O)[C@@H](N)CO)C(C)C)C(=O)N[C@@H](CCCNC(N)=O)C(=O)N[C@@H](C)C(=O)N[C@@H](CCC(=O)O)C(=O)NCC(=O)N[C@@H](CC(N)=O)C(=O)N[C@@H](CO)C(=O)N[C@@H](CCCNC(=N)N)C(=O)N[C@@H](Cc1ccccc1)C(=O)N[C@H](C(=O)O)[C@@H](C)O [SNDVEIXAEGNSRFT] (H-SNDVEI[Cit]AEGNSRFT-OH),IC50 (HLA-DRB1*04:01; [1]): 929 nM; IC50 (HLA-DRB1*01:01; [2]): 1520 nM
497 nM,7.6 nM,–,–,CC(C)C[C@H](NC(=O)[C@H](CCCNC(N)=O)NC(=O)[C@@H](NC(=O)[C@H](C)NC(=O)[C@H](CO)NC(=O)[C@H](CO)NC(=O)[C@H](CCCNC(=N)N)NC(=O)[C@@H](NC(=O)[C@H](C)NC(=O)[C@H](Cc1ccc(O)cc1)NC(=O)[C@@H](NC(=O)CNC(=O)CNC(=O)[C@@H]1CCCN1C(=O)[C@@H](N)CO)C(C)C)[C@@H](C)O)C(C)C)C(=O)O [SPGGVYATRSSAVXL] (H-SPGGVYATRSSAV[Cit]L-OH),–
329 nM,6.6 nM,–,–,CC(C)C[C@H](NC(=O)[C@H](CCCNC(=N)N)NC(=O)[C@@H](NC(=O)[C@H](C)NC(=O)[C@H](CO)NC(=O)[C@H](CO)NC(=O)[C@H](CCCNC(N)=O)NC(=O)[C@@H](NC(=O)[C@H](C)NC(=O)[C@H](Cc1ccc(O)cc1)NC(=O)[C@@H](NC(=O)CNC(=O)CNC(=O)[C@@H]1CCCN1C(=O)[C@@H](N)CO)C(C)C)[C@@H](C)O)C(C)C)C(=O)O [SPGGVYATXSSAVRL] (H-SPGGVYAT[Cit]SSAVRL-OH),–
109 nM,85 nM,–,–,CC(C)C[C@H](NC(=O)[C@H](CO)NC(=O)[C@H](Cc1ccc(O)cc1)NC(=O)[C@@H](NC(=O)[C@H](CCCNC(N)=O)NC(=O)[C@@H](NC(=O)[C@H](CO)NC(=O)[C@@H](NC(=O)[C@@H](NC(=O)[C@@H](NC(=O)[C@H](Cc1ccc(O)cc1)NC(=O)[C@H](CO)NC(=O)[C@H](CCCNC(=N)N)NC(=O)[C@H](CO)NC(=O)[C@@H](N)CO)C(C)C)[C@@H](C)O)[C@@H](C)O)[C@@H](C)O)[C@@H](C)O)C(=O)O [SSRSYVTTSTXTYSL] (H-SSRSYVTTST[Cit]TYSL-OH),–
357 nM,93 nM,–,–,CC(C)C[C@H](NC(=O)[C@H](CO)NC(=O)[C@H](Cc1ccc(O)cc1)NC(=O)[C@@H](NC(=O)[C@H](CCCNC(=N)N)NC(=O)[C@@H](NC(=O)[C@H](CO)NC(=O)[C@@H](NC(=O)[C@@H](NC(=O)[C@@H](NC(=O)[C@H](Cc1ccc(O)cc1)NC(=O)[C@H](CO)NC(=O)[C@H](CCCNC(N)=O)NC(=O)[C@H](CO)NC(=O)[C@@H](N)CO)C(C)C)[C@@H](C)O)[C@@H](C)O)[C@@H](C)O)[C@@H](C)O)C(=O)O [SSXSYVTTSTRTYSL] (H-SS[Cit]SYVTTSTRTYSL-OH),–
–,–,860 nM,158 nM,CC(C)C[C@H](NC(=O)[C@H](CO)NC(=O)[C@H](CCC(N)=O)NC(=O)[C@@H](NC(=O)[C@H](CCC(N)=O)NC(=O)[C@H](CCCNC(N)=O)NC(=O)[C@H](CCCNC(=N)N)NC(=O)[C@H](Cc1ccc(O)cc1)NC(=O)[C@H](CCC(=O)O)NC(=O)[C@@H](NC(=O)[C@@H](N)CO)[C@@H](C)O)C(C)C)C(=O)N[C@H](C(=O)N[C@@H](CS)C(=O)N[C@@H](CCC(=O)O)C(=O)N[C@H](C(=O)O)C(C)C)[C@@H](C)O [STEYRXQVQSLTCEV] (H-STEYR[Cit]QVQSLTCEV-OH),–
–,–,1510 nM,97 nM,CC(C)C[C@H](NC(=O)[C@H](CO)NC(=O)[C@H](CCC(N)=O)NC(=O)[C@@H](NC(=O)[C@H](CCC(N)=O)NC(=O)[C@H](CCCNC(=N)N)NC(=O)[C@H](CCCNC(N)=O)NC(=O)[C@H](Cc1ccc(O)cc1)NC(=O)[C@H](CCC(=O)O)NC(=O)[C@@H](NC(=O)[C@@H](N)CO)[C@@H](C)O)C(C)C)C(=O)N[C@H](C(=O)N[C@@H](CS)C(=O)N[C@@H](CCC(=O)O)C(=O)N[C@H](C(=O)O)C(C)C)[C@@H](C)O [STEYXRQVQSLTCEV] (H-STEY[Cit]RQVQSLTCEV-OH),–
7160 nM,896 nM,–,–,CC(C)C[C@H](NC(=O)[C@H](C)NC(=O)[C@H](C)NC(=O)[C@@H](N)[C@@H](C)O)C(=O)N[C@@H](CCCNC(=N)N)C(=O)N[C@@H](CC(=O)O)C(=O)N[C@H](C(=O)N[C@@H](CCCNC(N)=O)C(=O)N[C@@H](CCC(N)=O)C(=O)N[C@@H](CCC(N)=O)C(=O)N[C@@H](Cc1ccc(O)cc1)C(=O)N[C@@H](CCC(=O)O)C(=O)N[C@@H](CO)C(=O)N[C@H](C(=O)N[C@@H](C)C(=O)O)C(C)C)C(C)C [TAALRDVXQQYESVA] (H-TAALRDV[Cit]QQYESVA-OH),–
8760 nM,956 nM,–,–,CC(C)C[C@H](NC(=O)[C@H](C)NC(=O)[C@H](C)NC(=O)[C@@H](N)[C@@H](C)O)C(=O)N[C@@H](CCCNC(N)=O)C(=O)N[C@@H](CC(=O)O)C(=O)N[C@H](C(=O)N[C@@H](CCCNC(=N)N)C(=O)N[C@@H](CCC(N)=O)C(=O)N[C@@H](CCC(N)=O)C(=O)N[C@@H](Cc1ccc(O)cc1)C(=O)N[C@@H](CCC(=O)O)C(=O)N[C@@H](CO)C(=O)N[C@H](C(=O)N[C@@H](C)C(=O)O)C(C)C)C(C)C [TAALXDVRQQYESVA] (H-TAAL[Cit]DVRQQYESVA-OH),–
–,–,–,–,CC[C@H](C)[C@H](NC(=O)[C@H](CC(N)=O)NC(=O)[C@H](CCC(N)=O)NC(=O)[C@H](CO)NC(=O)CNC(=O)[C@H](CCC(=O)O)NC(=O)[C@@H](NC(=O)[C@H](CO)NC(=O)[C@H](CC(C)C)NC(=O)[C@H](CC(C)C)NC(=O)[C@H](CCCNC(N)=O)NC(=O)[C@H](CC(C)C)NC(=O)[C@H](Cc1ccccc1)NC(=O)[C@@H](N)[C@@H](C)O)[C@@H](C)O)C(=O)N[C@H](C(=O)O)[C@@H](C)O [TFLXLLSTEGSQNIT] (H-TFL[Cit]LLSTEGSQNIT-OH),IC50 (HLA-DRB1*04:01; [1]): 55 nM; IC50 (HLA-DRB1*01:01; [2]): 5.6 nM
–,–,> 40000 nM,3470 nM,CC(C)[C@H](NC(=O)[C@H](CCCNC(N)=O)NC(=O)CNC(=O)[C@H](C)NC(=O)[C@H](C)NC(=O)CNC(=O)[C@@H]1CCCN1C(=O)[C@H](Cc1ccccc1)NC(=O)CNC(=O)[C@@H](N)[C@@H](C)O)C(=O)NCC(=O)N1CCC[C@H]1C(=O)N1CCC[C@H]1C(=O)NCC(=O)N[C@@H](CO)C(=O)O [TGFPGAAGXVGPPGS] (H-TGFPGAAG[Cit]VGPPGS-OH),–
–,–,> 40000 nM,2690 nM,C[C@H](NC(=O)CNC(=O)[C@@H]1CCCN1C(=O)[C@@H]1CCCN1C(=O)CNC(=O)[C@H](CCC(N)=O)NC(=O)[C@H](C)NC(=O)CNC(=O)[C@H](CCCNC(N)=O)NC(=O)[C@H](C)NC(=O)CNC(=O)[C@H](CCCCN)NC(=O)[C@@H]1CCCN1C(=O)CNC(=O)[C@@H](N)[C@@H](C)O)C(=O)O [TGPKGAXGAQGPPGA] (H-TGPKGA[Cit]GAQGPPGA-OH),–
–,–,6020 nM,310 nM,CC[C@H](C)[C@H](NC(=O)[C@H](CC(C)C)NC(=O)[C@H](CC(C)C)NC(=O)[C@@H](NC(=O)[C@H](CCCNC(=N)N)NC(=O)[C@H](CCCCN)NC(=O)[C@H](CO)NC(=O)[C@H](Cc1c[nH]cn1)NC(=O)[C@@H](N)[C@@H](C)O)[C@@H](C)O)C(=O)N[C@@H](CCCCN)C(=O)N[C@H](C(=O)N[C@H](C(=O)N[C@@H](CCC(=O)O)C(=O)N[C@H](C(=O)N[C@@H](CCCNC(N)=O)C(=O)O)[C@@H](C)O)C(C)C)[C@@H](C)O [THSKRTLLIKTVETX] (H-THSKRTLLIKTVET[Cit]-OH),–
